Data from patent publication EP0497091A1, “Bridged cyclic ketal derivatives” (GLAXO GROUP LIMITED, priority 1991, dated 1992).
≈ marks a conversion by molar mass, not a printed value.

Assays:
squalene synthase = target: T1, squalene synthase (Rattus norvegicus, UniProt Q02769); test: Inhibition of squalene synthase ([14C]squalene production from [2-14C]farnesylpyrophosphate); type: biochemical
T1 construct: from tissue; host or cells: rat liver homogenate
T1 sequence (Q02769 1-416): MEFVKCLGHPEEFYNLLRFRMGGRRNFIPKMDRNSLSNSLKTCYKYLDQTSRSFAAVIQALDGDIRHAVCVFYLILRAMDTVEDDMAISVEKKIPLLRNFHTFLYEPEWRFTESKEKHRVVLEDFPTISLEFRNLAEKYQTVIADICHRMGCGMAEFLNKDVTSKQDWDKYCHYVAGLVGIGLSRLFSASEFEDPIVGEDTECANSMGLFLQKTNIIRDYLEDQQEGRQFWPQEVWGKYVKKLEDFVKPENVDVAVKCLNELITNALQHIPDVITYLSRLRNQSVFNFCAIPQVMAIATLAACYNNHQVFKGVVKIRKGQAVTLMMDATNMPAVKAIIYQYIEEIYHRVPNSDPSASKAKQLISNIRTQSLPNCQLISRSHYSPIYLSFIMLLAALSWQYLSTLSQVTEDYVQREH
Excerpt: A. Biller et al. in J. […] [¹⁴C]squalene is separated from unreacted substrate on thin layer chromatography plates and determined by liquid scintillation counting. […] Acta, Volume 877, 50-60 (1986) and modified to include measurement of cholesterol by high performance liquid chromatography (h.p.l.c.). […] A. […] [¹⁴C] Squalene was separated from unreacted substrate on thin layer chromatography plates and determined by liquid scintillation counting. Inhibition of squalene synthase was quantified by incubating rat liver homogenate with various concentrations of the test compound in the presence of [2-¹⁴C] farnesylpyrophosphate. The concentration of compound giving 50% inhibition of [¹⁴C] squalene production in a 30 minute assay was taken as the IC₅₀ value.

[1] = system: clinically relevant pathogens; test: In vitro antifungal activity, agar plate MIC determination; type: cell-based; details: Candida albicans
Procedure: The in vitro evaluation of the anti-fungal activity of compounds of the invention can be performed by determining the minimum inhibitory concentration (MIC) which is the concentration of the test compound in a suitable medium at which growth of a particular microorganism fails to occur.
[¹⁴C] Squalene was separated from unreacted substrate on thin layer chromatography plates and determined by liquid scintillation counting. Inhibition of squalene synthase was quantified by incubating rat liver homogenate with various concentrations of the test compound in the presence of [2-¹⁴C] farnesylpyrophosphate. The concentration of compound giving 50% inhibition of [¹⁴C] squalene production in a 30 minute assay was taken as the IC₅₀ value. […] In practice, a series of agar plates, each having the test compound incorporated at a particular concentration, was inoculated with a standard culture of a clinically relevant pathogen, for example Candida albicans, and each plate was then incubated at 37 °C for 24 to 48 hours depending on the pathogen.

C=C(CC[C@]12O[C@H](C(=O)O)[C@@](O)(C(=O)O)[C@](C(=O)O)(O1)[C@H](OC(=O)CCCCCCC)[C@H]2O)[C@@H](OC(C)=O)[C@H](C)Cc1ccccc1 (relative stereo) [Example 31, [1S-[1α(4R*,5S*),3α,4β,5α,6α,7β]] 1-(4-Acetyloxy-5-methyl-3-methylene-6-phenylhexyl)-4,6,7-trihydroxy-2,8-dioxabicyclo[3.2.1]octane-3,4,5-tricarboxylic acid, 6-octanoate]
IC50 (squalene synthase): < 100 nM
MIC [1]: 0.1 to 31 µg/mL (≈ 0.15 to 46.6 µM)

C=C(CC[C@]12O[C@H](C(=O)O)[C@@](O)(C(=O)O)[C@](C(=O)O)(O1)[C@H](OC(=O)CCCCCCc1ccccc1)[C@H]2O)[C@@H](OC(C)=O)[C@H](C)Cc1ccccc1 (relative stereo) [Example 39, [1S-[1α(4R*,5S*)3α,4β,5α,6α,7β]] 1-(4-Acetyloxy-5-methyl-3-methylene-6-phenylhexyl)-4,6,7-trihydroxy-2,8-dioxabicyclo[3.2.1]octane-3,4,5-tricarboxylic acid, 6-(7-phenylheptanoate)]
IC50 (squalene synthase): < 100 nM
MIC [1]: 0.1 to 31 µg/mL (≈ 0.138 to 42.7 µM)

C=C(CC[C@]12O[C@H](C(=O)O)[C@@](O)(C(=O)O)[C@](C(=O)O)(O1)[C@H](OC(=O)CCCC1CCCCC1)[C@H]2O)[C@@H](OC(C)=O)[C@H](C)Cc1ccccc1 (relative stereo) [Example 41, [1S-[1α(4R*,5S*),3α,4β,5α,6α,7β]] 1-(4-Acetyloxy-5-methyl-3-methylene-6-phenylhexyl)-4,6,7-trihydroxy-2,8-dioxabicyclo[3.2.1]octane-3,4,5-tricarboxylic acid, 6-(4-cyclohexylbutanoate)]
IC50 (squalene synthase): < 100 nM
MIC [1]: 0.1 to 31 µg/mL (≈ 0.145 to 44.9 µM)

C=C(CC[C@]12O[C@H](C(=O)O)[C@@](O)(C(=O)O)[C@](C(=O)O)(O1)[C@H](OC(=O)CC13CC4CC(CC(C4)C1)C3)[C@H]2O)[C@@H](OC(C)=O)[C@H](C)Cc1ccccc1 (relative stereo) [Example 45, [1S-[1α(4R*,5S*),3α,4β,5α,6α,7β]] 1-(4-Acetyloxy-5-methyl-3-methylene-6-phenylhexyl)-4,6,7-trihydroxy-2,8-dioxabicyclo[3.2.1]octane-3,4,5-tricarboxylic acid, 6-[1-(tricyclo[3.3.1.1^3,7]decyl)acetate]]
IC50 (squalene synthase): < 100 nM
MIC [1]: 0.1 to 31 µg/mL (≈ 0.14 to 43.4 µM)

C=C(CC[C@]12O[C@H](C(=O)O)[C@@](O)(C(=O)O)[C@](C(=O)O)(O1)[C@H](OC(=O)OCCCCCCCCC)[C@H]2O)[C@@H](OC(C)=O)[C@H](C)Cc1ccccc1 (relative stereo) [Example 57, [1S-[1α(4R*,5S*),3α,4β.5α,6α,7β]] 1-(4-Acetyloxy-5-methyl-3-methylene-6-phenylhexyl)-4,7-dihydroxy-6-[(nonoxycarbonyl)oxy]-2,8-dioxabicyclo[3.2.1]octane-3,4,5-tricarboxylic acid]
IC50 (squalene synthase): < 100 nM
MIC [1]: 0.1 to 31 µg/mL (≈ 0.141 to 43.7 µM)

C=C(CC[C@]12O[C@H](C(=O)O)[C@@](O)(C(=O)O)[C@](C(=O)O)(O1)[C@H](OC(=O)CC=CCCCC)[C@H]2O)[C@@H](OC(C)=O)[C@H](C)Cc1ccccc1 (relative stereo) [Example 64, [1S-[1α(4R*,5S*),3α,4β,5α,6α,7β]] 1-(4-Acetyloxy-5-methyl-3-methylene-6-phenylhexyl)-4,6,7-trihydroxy-2,8-dioxabicyclo[3.2.1]octane-3,4,5-tricarboxylic acid, 6-[(E/Z)-3-octenoate]]
IC50 (squalene synthase): < 100 nM
MIC [1]: 0.1 to 31 µg/mL (≈ 0.151 to 46.8 µM)

CCC(C)CC(C)CCC(=O)OC1C(O)C2(CCC(O)C(O)C(C)Cc3ccccc3)OC(C(=O)O)C(O)(C(=O)O)C1(C(=O)O)O2 (stereo not drawn) [Example 18, [1S-[1α(3R*S*,4R*,5S*),3α,4β,5α,6α(4S*,6R*),7β]] 1-(3,4-Dihydroxy-5-methyl-6-phenylhexyl)-4,6,7-trihydroxy-2,8-dioxabicyclo[3.2.1]octane-3,4,5-tricarboxylic acid, 6-(4,6-dimethyloctanoate)]
IC50 (squalene synthase): < 100 nM
MIC [1]: 0.1 to 31 µg/mL (≈ 0.153 to 47.3 µM)

C=C(CCC12OC(C(=O)O)C(O)(C(=O)O)C(C(=O)O)(O1)C(OC(=O)C=CC(C)CC(C)CC)C2OC(C)=O)C(OC(C)=O)C(C)Cc1ccccc1 (stereo not drawn) [Example 24, [1S-[1α(4R*,5S*),3α,4β,5α,6α(2E,4R*,6R*),7β]] 7-Acetyloxy-1-(4-acetyloxy-5-methyl-3-methylene-6-phenylhexyl)-4,6-dihydroxy-2,8-dioxabicyclo[3.2.1]octane-3,4,5-tricarboxylic acid, 6-(4,6-dimethyl-2-octenoate)]
IC50 (squalene synthase): < 100 nM
MIC [1]: 0.1 to 31 µg/mL (≈ 0.136 to 42.3 µM)
